± gives the expanded uncertainty stated by the source.
Settings: 298.15 K; 101.33 kPa; Liquid

mass density [kg/m3]	speed of sound [m/s]	Compound	viscosity [mPa·s]
1028.31 ± 0.68	1545.1 ± 13	CN1CCCC1=O [N-methylpyrrolidone]	1.663 ± 0.078
1042.04 ± 0.77	1530.1 ± 6.3	C=CN1CCCC1=O [N-vinylpyrrolidone]	–
–	1498 ± 6.2	O [water]	–

Compound	mass density [kg/m3]	speed of sound [m/s]	viscosity [mPa·s]
O=C1CCCN1 [2-pyrrolidinone]	1107.02 ± 2.4	1633.2 ± 6.6	13.36 ± 0.48

Same assay, conditions: 308.15 K; 101.33 kPa; Liquid

mass density [kg/m3]	speed of sound [m/s]	viscosity [mPa·s]	Compound
1019.33 ± 0.63	1518.4 ± 12	1.365 ± 0.065	CN1CCCC1=O [N-methylpyrrolidone]
1033.19 ± 0.71	1499.4 ± 6.2	2.942 ± 0.17	C=CN1CCCC1=O [N-vinylpyrrolidone]
–	1519 ± 6.3	–	O [water]

Compound	mass density [kg/m3]	speed of sound [m/s]	viscosity [mPa·s]
O=C1CCCN1 [2-pyrrolidinone]	1099.15 ± 2.3	1603.1 ± 6.5	8.844 ± 0.34

Same assay, conditions: 318.15 K; 101.33 kPa; Liquid

mass density [kg/m3]	viscosity [mPa·s]	speed of sound [m/s]	Compound
1010.11 ± 0.57	1.21 ± 0.058	1477.8 ± 12	CN1CCCC1=O [N-methylpyrrolidone]
1024.38 ± 0.66	2.59 ± 0.15	1467.6 ± 6.1	C=CN1CCCC1=O [N-vinylpyrrolidone]
–	–	1535.1 ± 6.3	O [water]

Compound	mass density [kg/m3]	viscosity [mPa·s]	speed of sound [m/s]
O=C1CCCN1 [2-pyrrolidinone]	1091.06 ± 2.2	6.259 ± 0.26	–

Same assay, conditions: 328.15 K; 101.33 kPa; Liquid

mass density [kg/m3]	speed of sound [m/s]	viscosity [mPa·s]	Compound
1001.18 ± 0.51	1448.7 ± 12	1.117 ± 0.054	CN1CCCC1=O [N-methylpyrrolidone]
1015.58 ± 0.6	1430.2 ± 6	2.259 ± 0.13	C=CN1CCCC1=O [N-vinylpyrrolidone]
–	1545 ± 6.3	–	O [water]

Compound	mass density [kg/m3]	speed of sound [m/s]	viscosity [mPa·s]
O=C1CCCN1 [2-pyrrolidinone]	1082.87 ± 2.1	1549.7 ± 6.4	4.677 ± 0.2

Same assay, conditions: 338.15 K; 101.33 kPa; Liquid

mass density [kg/m3]	speed of sound [m/s]	viscosity [mPa·s]	Compound
992.234 ± 0.56	1407.3 ± 12	0.986 ± 0.049	CN1CCCC1=O [N-methylpyrrolidone]
1006.77 ± 0.55	1403.3 ± 5.9	1.836 ± 0.11	C=CN1CCCC1=O [N-vinylpyrrolidone]
–	1551 ± 6.4	–	O [water]

Compound	mass density [kg/m3]	speed of sound [m/s]	viscosity [mPa·s]
O=C1CCCN1 [2-pyrrolidinone]	1070.68 ± 1.9	1520.1 ± 6.3	3.451 ± 0.15
